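Protocol summary: plate cells (96-well), add compound at 5 concentrations, incubate 48 h, interpolate endpoints linearly. GI50 is the concentration that inhibits growth by half. TGI is the concentration that stops growth completely.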
Experiments:
Test in all cases: NCI anticancer screen, dose series, 48 h
[1] = system: HOP-92 NSCLC
[2] = system: 786-0 renal
[3] = system: SK-OV-3 ovarian
[4] = system: A498 renal
[5] = system: PC-3 prostate
[6] = system: U251 CNS
[7] = system: SF-295 CNS
[8] = system: CAKI-1 renal
[9] = system: HS 578T breast
[10] = system: NCI-H226 lung

## CCNCCNc1cc(-c2ccc(C(F)(F)F)cc2)c(C#N)c2nc3cc(Cl)c(Cl)cc3n12
[1]
  GI50: 1410 nM
  TGI: 2960 nM
[2]
  GI50: 1530 nM
  TGI: 3020 nM
[3]
  GI50: 2010 nM
  TGI: 3450 nM
[4]
  GI50: 2000 nM
  TGI: 3600 nM
[5]
  GI50: 1710 nM
  TGI: 3400 nM
[6]
  GI50: 1670 nM
  TGI: 3080 nM
[7]
  GI50: 1730 nM
  TGI: 3200 nM
[8]
  GI50: 1450 nM
  TGI: 2820 nM
[9]
  GI50: 1810 nM
  TGI: 3910 nM

## Cc1sc2c(c1C)C(c1ccc(Cl)cc1)=N[C@@H](CC(=O)NCCCN1CCN(C)CC1)c1nnc(C)n1-2
[1]
  GI50: 32 nM
  TGI: > 25200 nM
[2]
  GI50: 5480 nM
  TGI: > 100000 nM
[3]
  GI50: 309 nM
  TGI: > 42300 nM
[4]
  GI50: 271 nM
  TGI: 7780 nM
[5]
  GI50: 1050 nM
  TGI: > 100000 nM
[6]
  GI50: 8880 nM
  TGI: > 100000 nM
[7]
  GI50: 8120 nM
  TGI: > 100000 nM
[10]
  TGI: > 100000 nM
[8]
  GI50: 684 nM
  TGI: > 100000 nM
[9]
  GI50: 216 nM
  TGI: > 22700 nM

## C=CC(=O)Nc1cccc(Oc2nc(Nc3ccc(N4CCN(C)CC4)cc3OC)ncc2Cl)c1
[1]
  GI50: 743 nM
  TGI: 2550 nM
[2]
  GI50: 1470 nM
  TGI: 2940 nM
[3]
  GI50: 342 nM
  TGI: 5330 nM
[4]
  GI50: 1110 nM
  TGI: 3490 nM
[5]
  GI50: 2190 nM
  TGI: 7030 nM
[6]
  GI50: 1490 nM
  TGI: 3030 nM
[7]
  GI50: 2210 nM
  TGI: 5810 nM
[10]
  GI50: 1810 nM
  TGI: 5660 nM
[8]
  GI50: 985 nM
  TGI: 2440 nM
[9]
  GI50: 1860 nM
  TGI: 5390 nM

## O=[N+]([O-])c1oc2ccc3ccccc3c2c1CCO
[1]
  TGI: 35000 nM
[2]
  TGI: > 50000 nM
[3]
  TGI: 5100 nM
[4]
  TGI: 720 nM
[5]
  TGI: 87700 nM
[6]
  TGI: 56900 nM
[7]
  TGI: 7040 nM
[10]
  TGI: 30100 nM
[8]
  TGI: 8580 nM
[9]
  TGI: 27700 nM

## COc1ccc(Cn2cc3c(c2-c2cc(OC)c(OC)c(OC)c2)CCc2c(CO)noc2-3)cc1
[1]
  GI50: 2970 nM
  TGI: 22200 nM
[2]
  GI50: 493 nM
  TGI: 24700 nM
[3]
  GI50: 428 nM
  TGI: 31100 nM
[4]
  GI50: 187 nM
  TGI: 3030 nM
[5]
  GI50: 309 nM
  TGI: 41900 nM
[6]
  GI50: 349 nM
  TGI: 15500 nM
[7]
  GI50: 225 nM
  TGI: 15200 nM
[10]
  GI50: 2940 nM
  TGI: 38200 nM
[8]
  GI50: 342 nM
  TGI: 20100 nM
[9]
  GI50: 371 nM
  TGI: 35800 nM

## CC(C)C(=O)c1c(C(F)(F)F)n([O-])c2ccccc2[n+]1=O
[1]
  GI50: 466 nM
  TGI: 1620 nM
[2]
  GI50: 1650 nM
  TGI: 3730 nM
[3]
  GI50: 2660 nM
  TGI: > 100000 nM
[4]
  GI50: 7340 nM
  TGI: 16200 nM
[5]
  GI50: 688 nM
  TGI: 3030 nM
[6]
  GI50: 2840 nM
  TGI: > 33200 nM
[7]
  GI50: 553 nM
  TGI: 2000 nM
[10]
  GI50: 1860 nM
  TGI: 5270 nM
[8]
  GI50: 689 nM
  TGI: 2100 nM
[9]
  GI50: 5400 nM
  TGI: 18100 nM
